Source: ChEMBL document CHEMBL2057108 (Bioorg Med Chem Lett, 2012)
Active and inactive are the calls of the source. No cut-off for these calls is given here.

How the values were obtained:
[1] = biological target: T1, 5-hydroxytryptamine receptor 4 (Homo sapiens, UniProt Q13639); assay: Agonist activity at human 5HT4C receptor expressed in a cell line expressing receptor at 10 fold physiological-level assessed as cAMP accumulation; format: functional
[2] = biological target: T1, 5-hydroxytryptamine receptor 4; assay: 5-HT4C receptor-mediated exchange of GDP for europium labeled GTP (intrinsic activity)
[3] = biological target: T1, 5-hydroxytryptamine receptor 4; assay: 5-HT4C receptor-mediated exchange of GDP for europium labeled GTP (pEC50)
Rattus norvegicus = assay: 5-HT4 receptor-mediated esophageal relaxation in anesthetized rat (following i.v. administration) using digital sonomicrometry; format: functional; conditions: Sprague-Dawley, iv
Homo sapiens = species: Homo sapiens; assay: Selectivity ratio of Ki for human 5HT3A receptor to Ki for human 5HT4C receptor
[4] = biological target: T1, 5-hydroxytryptamine receptor 4; assay: Intrinsic activity at human 5HT4C receptor expressed in a cell line expressing receptor at 10 fold physiological-level assessed as cAMP accumulation relative to 5HT; format: functional
hERG (KCNH2) = hERG (KCNH2) (Homo sapiens, UniProt Q12809); assay: Inhibition of human ERG expressed in CHO cells at 3 uM; format: cell-based; conditions: CHO cells expressing human ERG
[5] = Half life in rat liver microsomes; format: ADME, Microsome; conditions: liver microsomes
[6] = Permeability across human Caco2 cells; format: ADME, cell-based; conditions: Caco-2, read-out: Kp
[7] = biological target: T1, 5-hydroxytryptamine receptor 4; assay: Intrinsic activity at human 5HT4C receptor expressed at 100 fold physiological-level in HEK293 cells assessed as cAMP accumulation relative to 5HT; format: functional, cell-based
[8] = biological target: T1, 5-hydroxytryptamine receptor 4; assay: biochemical
Description: Displacement of [3H]GR113808 from human recombinant 5HT4C receptor expressed in HEK293 cells

[9] = biological target: T1, 5-hydroxytryptamine receptor 4; assay: Agonist activity at human 5HT4C receptor expressed at 100 fold physiological-level in HEK293 cells assessed as cAMP accumulation; format: functional, cell-based
[10] = Oral bioavailability in Sprague-Dawley rat at 5 mg/kg; format: ADME, organism-based; conditions: in vivo
[11] = AUC (0 to t) in Sprague-Dawley rat at 5 mg/kg, po; format: ADME, organism-based; set-up: dose 5 mg/kg, route oral; conditions: plasma
[12] = Cmax in Sprague-Dawley rat at 5 mg/kg, po; format: ADME, organism-based; set-up: dose 5 mg/kg, route oral; conditions: in vivo
[13] = Half life in Sprague-Dawley rat at 5 mg/kg, po; format: ADME, organism-based; set-up: dose 5 mg/kg, route oral; conditions: in vivo
Cavia porcellus = assay: Agonist activity at 5HT4 receptor in sc dosed guinea pig assessed as decrease in colonic transit time of carmine red dye after 60 mins relative to vehicle treated control; format: functional, organism-based
[14] = biological target: 5-hydroxytryptamine receptor 4 (Cavia porcellus, UniProt O70528); assay: Agonist activity at 5HT4 receptor in guinea pig colon assessed as longitudinal muscle plexus contraction
5-hydroxytryptamine receptor 4 (Cavia porcellus, UniProt O70528), sequence (O70528 whole entry): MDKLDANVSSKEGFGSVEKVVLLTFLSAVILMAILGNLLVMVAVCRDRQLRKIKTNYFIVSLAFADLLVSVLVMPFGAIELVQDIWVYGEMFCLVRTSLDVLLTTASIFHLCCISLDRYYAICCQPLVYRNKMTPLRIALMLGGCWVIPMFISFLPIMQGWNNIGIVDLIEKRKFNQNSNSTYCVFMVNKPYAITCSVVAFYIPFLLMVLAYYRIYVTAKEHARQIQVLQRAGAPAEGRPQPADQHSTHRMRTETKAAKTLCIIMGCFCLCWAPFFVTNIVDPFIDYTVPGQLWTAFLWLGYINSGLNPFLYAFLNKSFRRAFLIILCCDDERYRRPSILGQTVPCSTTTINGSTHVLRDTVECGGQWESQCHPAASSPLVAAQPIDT

T1 sequence (Q13639 whole entry): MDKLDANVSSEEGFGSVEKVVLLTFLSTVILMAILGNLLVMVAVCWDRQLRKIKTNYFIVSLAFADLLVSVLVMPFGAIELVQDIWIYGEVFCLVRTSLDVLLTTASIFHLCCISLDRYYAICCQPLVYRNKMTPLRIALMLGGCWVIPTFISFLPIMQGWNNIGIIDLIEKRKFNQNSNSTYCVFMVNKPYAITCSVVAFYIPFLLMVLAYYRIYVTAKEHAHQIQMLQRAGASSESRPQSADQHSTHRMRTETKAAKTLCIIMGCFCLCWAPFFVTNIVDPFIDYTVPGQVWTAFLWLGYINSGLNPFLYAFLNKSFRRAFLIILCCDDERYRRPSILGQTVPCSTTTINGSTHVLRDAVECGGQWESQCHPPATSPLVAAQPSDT
hERG (KCNH2), sequence (Q12809 whole entry): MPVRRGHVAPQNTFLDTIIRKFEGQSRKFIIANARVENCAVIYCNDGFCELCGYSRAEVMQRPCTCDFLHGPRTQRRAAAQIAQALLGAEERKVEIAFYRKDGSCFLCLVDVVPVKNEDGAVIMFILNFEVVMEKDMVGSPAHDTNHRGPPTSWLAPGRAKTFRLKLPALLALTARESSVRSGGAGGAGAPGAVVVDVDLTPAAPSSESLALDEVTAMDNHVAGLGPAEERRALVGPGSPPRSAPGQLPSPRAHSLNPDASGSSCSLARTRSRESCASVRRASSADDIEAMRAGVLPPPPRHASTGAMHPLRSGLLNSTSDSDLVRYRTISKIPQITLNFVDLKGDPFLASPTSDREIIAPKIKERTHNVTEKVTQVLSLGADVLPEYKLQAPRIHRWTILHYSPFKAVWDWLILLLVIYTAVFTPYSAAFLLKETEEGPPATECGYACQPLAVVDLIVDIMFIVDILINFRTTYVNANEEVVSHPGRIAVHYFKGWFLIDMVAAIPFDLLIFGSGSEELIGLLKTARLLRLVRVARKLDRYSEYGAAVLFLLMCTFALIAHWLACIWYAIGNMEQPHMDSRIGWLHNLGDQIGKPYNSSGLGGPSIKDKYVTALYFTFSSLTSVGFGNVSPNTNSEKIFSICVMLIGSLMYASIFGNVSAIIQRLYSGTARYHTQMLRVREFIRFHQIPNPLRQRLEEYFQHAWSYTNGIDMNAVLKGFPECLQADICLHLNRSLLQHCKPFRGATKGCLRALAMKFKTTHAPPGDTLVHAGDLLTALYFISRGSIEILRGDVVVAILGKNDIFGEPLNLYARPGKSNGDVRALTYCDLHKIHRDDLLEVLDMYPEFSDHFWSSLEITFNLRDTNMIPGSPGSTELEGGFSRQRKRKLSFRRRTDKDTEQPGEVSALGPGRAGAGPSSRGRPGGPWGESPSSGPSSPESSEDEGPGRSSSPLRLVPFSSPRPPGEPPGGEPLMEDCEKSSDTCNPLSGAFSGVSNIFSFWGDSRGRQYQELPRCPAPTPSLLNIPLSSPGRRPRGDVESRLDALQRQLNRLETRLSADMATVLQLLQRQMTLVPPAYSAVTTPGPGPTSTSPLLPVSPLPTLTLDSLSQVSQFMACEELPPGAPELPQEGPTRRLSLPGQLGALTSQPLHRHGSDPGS

With `CC(C)n1c(=O)c(C(=O)N[C@H]2C[C@H]3CC[C@@H](C2)N3C[C@@H](O)CN2CCN(S(C)(=O)=O)CC2)cc2ccccc21` the EC50 [1] was 2 nM, the Intrinsic activity [2] was > 100% and the EC50 [3] was 3.98 nM. The ED50 (Rattus norvegicus) was 0.142 mg/kg, the Ratio Ki (Homo sapiens) was 7400 and the Intrinsic activity [4] was > 100%.
With `CC(C)n1nc(C(=O)N[C@H]2C[C@H]3CC[C@@H](C2)N3CC(O)CN2CCN(S(C)(=O)=O)CC2)c2ccccc21` (some centres not stated) the inhibition at 3 µM (hERG (KCNH2)) was 4%, the half-life [5] was > 1.5 h and the Papp [6] was 190 nm/s. For the same molecule, the Intrinsic activity [7] was 95%, the Ratio Ki (Homo sapiens) was 7300 and the Ki [8] was 3.98 nM. For the same molecule, the EC50 [9] was 0.794 nM.
`CC(C)N(C)CCCCCCN1[C@@H]2CC[C@H]1C[C@@H](NC(=O)c1nn(C(C)C)c3ccccc13)C2` gave an Intrinsic activity [7] of 92%, a Ratio Ki (Homo sapiens) of 23 and a Ki [8] of 1 nM. For the same molecule, the EC50 [9] was 5.01 nM.
With `COC[C@@H]1CCCN1CCCCCCN1[C@@H]2CC[C@H]1C[C@@H](NC(=O)c1nn(C(C)C)c3ccccc13)C2` the Intrinsic activity [7] was 117%, the Ratio Ki (Homo sapiens) was 14 and the Ki [8] was 0.794 nM. It also gave an EC50 [9] of 0.794 nM.
`CC(C)n1nc(C(=O)N[C@H]2C[C@H]3CC[C@@H](C2)N3CCCCCCN2CCC(CNS(C)(=O)=O)CC2)c2ccccc21` gave an Intrinsic activity [7] of 91%, a Ratio Ki (Homo sapiens) of 4.3 and a Ki [8] of 1.58 nM. For the same molecule, the EC50 [9] was 1.58 nM.
Molecule `CC(C)n1nc(C(=O)N[C@H]2C[C@H]3CC[C@@H](C2)N3CCCCCCN2CCCCC2)c2ccccc21` has an Intrinsic activity [7] of 102%, a Ratio Ki (Homo sapiens) of 12 and a Ki [8] of 1 nM. For the same molecule, the EC50 [9] was 2.51 nM.
For `CC(C)n1nc(C(=O)N[C@H]2C[C@H]3CC[C@@H](C2)N3CCN2CCN(S(C)(=O)=O)CC2)c2ccccc21`, the inhibition at 3 µM (hERG (KCNH2)) was 9%, the bioavailability [10] was 48% and the half-life [5] was > 1.5 h. The Papp [6] was 310 nm/s, the AUC(0-t) [11] was 0.26 µg·h/mL and the Intrinsic activity [7] was 88%. The Cmax [12] was 0.099 µg/mL, the Ratio Ki (Homo sapiens) was 110 and the half-life [13] was 1.8 h. The Ki [8] was 12.6 nM and the EC50 [9] was 3.98 nM.
Molecule `COC[C@@H]1CCCN1CC(O)CN1[C@@H]2CC[C@H]1C[C@@H](NC(=O)c1nn(C(C)C)c3ccccc13)C2` (some centres not stated) has an inhibition at 3 µM (hERG (KCNH2)) of 33%, a half-life [5] of 1.25 h and a Papp [6] of 480 nm/s. It also gave an Intrinsic activity [7] of 108%, a Ratio Ki (Homo sapiens) of 3000 and a Ki [8] of 3.98 nM. It also gave an EC50 [9] of 2.51 nM.
In the case of `CCCCCNC(=N)N/N=C/c1c[nH]c2ccc(OC)cc12` [TEGASEROD], the pEC50 [1] is reported as 8.7, the Intrinsic activity [2] is reported as 71% and the inhibition at 3 µM (hERG (KCNH2)) is reported as 33%. For the same molecule, the EC50 [3] was 15.8 nM, the Intrinsic activity [7] was 115% and the Activity (Cavia porcellus) was “inactive”. The Ratio Ki (Homo sapiens) was 580, the Intrinsic activity [4] was 99% and the EC50 [9] was 1 nM. For the same molecule, the EC50 [14] was 6.31 nM.
